This note sets out measurements from US20240158446A1, “CYCLIC COMPOUND HAVING SELECTIVE INHIBITORY ACTION ON KRAS OVER HRAS AND NRAS” (CHUGAI SEIYAKU KABUSHIKI KAISHA, priority 2021, published 2024).

Experiment [1] concerns the target GDP-bound KRAS wild-type protein (Homo sapiens, UniProt P01116). Put plainly: Binding to KRAS by surface plasmon resonance (SPR), Single Cycle Kinetics. As to conditions: GDP-bound KRAS wild-type protein, read-out: KRAS KD. On the technique in general: Surface plasmon resonance follows binding to a sensor surface in real time, without labels.
Experiment [2] has as its target GDP-bound NRAS wild-type protein (Homo sapiens, UniProt P01111). Put plainly: Binding to NRAS by surface plasmon resonance (SPR), Single Cycle Kinetics. The conditions noted are these: SPR, GDP-bound NRAS wild-type protein vs GDP-bound KRAS wild-type protein.
In experiment [3] the target is GDP-bound HRAS wild-type protein (Homo sapiens, UniProt P01112). Description: Binding to HRAS by surface plasmon resonance (SPR), Single Cycle Kinetics. As to conditions: SPR, GDP-bound HRAS wild-type protein vs GDP-bound KRAS wild-type protein.
Where [4] appears, read: SPR Single Cycle Kinetics, 1:1 binding model.

pKd: −log10 of the molar value. Like-named read-outs stand apart in the source and are kept apart here. *1 amine or outer side, *2 acyl side, *3 side chain or, on linkers, in order; H or OH if unused. Where a SMILES comes first, the peptide text is derived from it. Bridges are numbered along the chain shown (N, C = ends). [ ]: non-standard residue; d: D form. The star is where a group is joined. hPhe(3,5-F2-4-CF3) = N[C@@H](CCc1cc(F)c(C(F)(F)F)c(F)c1)C(=O)O; hPhe(3-Cl-4-CF3) = N[C@@H](CCc1ccc(C(F)(F)F)c(Cl)c1)C(=O)O; NPrPhe(4-CF3) = CCCN[C@@H](Cc1ccc(C(F)(F)F)cc1)C(=O)O; X42 = Cc1ccc(C[C@@H](C(=O)[*:2])N(CC2CCC2)[*:1])cc1; NPrPhe(4-Me) = CCCN[C@@H](Cc1ccc(C)cc1)C(=O)O; NMeGly(cPent) = CN[C@H](C(=O)O)C1CCCC1; αMeI = CC[C@H](C)[C@](C)(N)C(=O)O; Gly(cBu) = N[C@H](C(=O)O)C1CCC1; NMeD = CN[C@@H](CC(=O)O)C(=O)O; NMeL = CN[C@@H](CC(C)C)C(=O)O; Morpholide = C1CN(*)CCO1; NMeA = CN[C@@H](C)C(=O)O; Ac5c = NC1(C(=O)O)CCCC1; Aze = O=C(O)[C@@H]1CCN1; NEtG = CCNCC(=O)O; Sar = CNCC(=O)O

GDP-bound KRAS wild-type protein, sequence (P01116 whole entry): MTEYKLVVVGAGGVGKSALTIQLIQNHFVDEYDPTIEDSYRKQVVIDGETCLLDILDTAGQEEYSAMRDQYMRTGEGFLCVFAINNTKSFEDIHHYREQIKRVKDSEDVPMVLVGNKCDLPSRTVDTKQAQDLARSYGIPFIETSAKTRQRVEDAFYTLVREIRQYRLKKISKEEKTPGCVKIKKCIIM
GDP-bound NRAS wild-type protein, sequence (P01111 whole entry): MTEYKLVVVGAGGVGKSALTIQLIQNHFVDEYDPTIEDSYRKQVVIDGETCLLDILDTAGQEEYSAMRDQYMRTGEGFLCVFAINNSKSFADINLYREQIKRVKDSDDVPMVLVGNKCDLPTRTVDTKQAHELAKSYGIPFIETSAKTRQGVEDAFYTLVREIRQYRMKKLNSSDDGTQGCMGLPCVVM
GDP-bound HRAS wild-type protein, sequence (P01112 whole entry): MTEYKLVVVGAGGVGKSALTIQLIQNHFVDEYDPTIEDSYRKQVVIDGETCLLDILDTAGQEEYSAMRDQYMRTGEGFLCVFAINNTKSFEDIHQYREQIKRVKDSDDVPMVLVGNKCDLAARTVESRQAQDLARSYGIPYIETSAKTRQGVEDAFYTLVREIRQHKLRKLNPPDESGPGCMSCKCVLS

As for `CC[C@H](C)[C@@H]1NC(=O)[C@H](CC(C)C)N(C)C(=O)C[C@@H](C(=O)N2CCOCC2)N(C)C(=O)[C@H](C2CCCC2)N(C)C(=O)C2(CCCC2)NC(=O)[C@@H]2CCCN2C(=O)[C@H](CCc2ccc(C(F)(F)F)c(Cl)c2)NC(=O)CN(C)C(=O)[C@H](Cc2ccc(C)cc2)N(CC2CCC2)C(=O)CN(C)C(=O)CN(C)C1=O` [PP0095] ([NMeL]I[Sar][Sar][X42][Sar][hPhe(3-Cl-4-CF3)]P[Ac5c][NMeGly(cPent)][NMeD]-Morpholide; lactam N-11), in experiment [1] (setting [4]), the negative-log Kd (pKd) – broadly, the Kd on a negative log10 scale, so that one unit is a factor of ten – was 9.10. In addition, in experiment [2], the “NRAS/KRAS (ratio of KD value for NRAS to KD value for KRAS)” value is “C (A compound having a KD ratio of 0.1 or more and less than 3 is denoted as C)”. Also, the “HRAS/KRAS (ratio of KD value for HRAS to KD value for KRAS)” value in experiment [3] is “C (A compound having a KD ratio of 0.1 or more and less than 3 is denoted as C)”.

In the case of `CCO[C@@H]1C[C@H]2C(=O)NC3(CC(F)(F)C3)C(=O)N(C)[C@@H](C(CC)CC)C(=O)N(C)C(C(C)C)CC(=O)N(C)[C@@H](CC)C(=O)N[C@@H]([C@@H](C)CC)C(=O)N(C)CC(=O)N(C)[C@H]3C/C=C\CCN(C3=O)[C@@H](Cc3ccc(C(F)(F)F)cc3)C(=O)N(C)CC(=O)N[C@@H](CCc3cc(F)c(C(F)(F)F)c(F)c3)C(=O)N2C1` (stereo partly drawn) [PP1591], the negative logarithm of the Kd (pKd) in experiment [1] (SPR, Single Cycle Kinetics, 1:1 binding model) is 8.34. Further, the “NRAS/KRAS (ratio of KD value for NRAS to KD value for KRAS)” value in experiment [2] (KD ratio class) was “A (a compound having 10 or more and less than 20 is denoted as A)”. Moreover, the “HRAS/KRAS (ratio of KD value for HRAS to KD value for KRAS)” value in experiment [3] (KD ratio class) was “A (a compound having 10 or more and less than 20 is denoted as A)”.

For `CCCN1C(=O)CN(C)C(=O)[C@@H]2CCN2C(=O)[C@H]([C@@H](C)CC)NC(=O)[C@H](CC(C)C)N(C)C(=O)C[C@@H](C(=O)N2CCOCC2)N(C)C(=O)[C@H](C2CCCC2)N(C)C(=O)[C@](C)([C@@H](C)CC)NC(=O)[C@@H]2CCCN2C(=O)[C@H](CCc2cc(F)c(C(F)(F)F)c(F)c2)NC(=O)CN(C)C(=O)[C@@H]1Cc1ccc(C(F)(F)F)cc1` [PP0774] ([NMeL]I[Aze][Sar][NPrPhe(4-CF3)][Sar][hPhe(3,5-F2-4-CF3)]P[αMeI][NMeGly(cPent)][NMeD]-Morpholide; lactam N-11), in experiment [1] (setting [4]), the pKd was 7.77. In addition, the “NRAS/KRAS (ratio of KD value with respect to NRAS to KD value with respect to KRAS)” value in experiment [2] was “B (a compound having 3 or more and less than 10 is denoted as B)”. Also, the “HRAS/KRAS (ratio of KD value with respect to HRAS to KD value with respect to KRAS)” value in experiment [3] is “B (a compound having 3 or more and less than 10 is denoted as B)”.

With `CCO[C@@H]1C[C@H]2C(=O)NC3(CCC3)C(=O)N(C)[C@@H](C3CCCC3)C(=O)N(C)[C@H](C(=O)N(C)C)CC(=O)N(C)[C@@H](CC)C(=O)N[C@@H]([C@@H](C)CC)C(=O)N(C)CC(=O)N(C)[C@H]3CCCCCN(C3=O)[C@@H](Cc3ccc(F)c(Cl)c3)C(=O)N(C)CC(=O)N[C@@H](CCc3cc(F)c(C(F)(F)F)c(F)c3)C(=O)N2C1` [PP0909], the pKd in experiment [1] (SPR, Single Cycle Kinetics) was 9.32. Also, the “NRAS/KRAS (ratio of KD value for NRAS to KD value for KRAS)” value in experiment [2] was “B (a compound having 3 or more and less than 10 is denoted as B)”. Further, the “HRAS/KRAS (ratio of KD value for HRAS to KD value for KRAS)” value in experiment [3] is “B (a compound having 3 or more and less than 10 is denoted as B)”.

On to `CCO[C@@H]1C[C@H]2C(=O)NC3(CCC3)C(=O)N(C)[C@@H](C3CCCC3)C(=O)N(C)[C@H](C(=O)N(C)C)CC(=O)N(C)[C@@H](CC3CCCCC3)C(=O)N[C@@H]([C@@H](C)CC)C(=O)N(C)CC(=O)N(C)[C@H]3CCCCN(C3=O)[C@@H](Cc3ccc(C(F)(F)F)cc3)C(=O)N(C)CC(=O)N[C@@H](CCc3cc(F)c(C(F)(F)F)c(F)c3)C(=O)N2C1` [PP0701], for which the pKd in experiment [1] (setting [4]) was 10.77. Besides, the “NRAS/KRAS (ratio of KD value with respect to NRAS to KD value with respect to KRAS)” value in experiment [2] was “C (A compound having a KD ratio of 0.1 or more and less than 3 is denoted as C)”. Further, the “HRAS/KRAS (ratio of KD value with respect to HRAS to KD value with respect to KRAS)” value in experiment [3] is “B (a compound having 3 or more and less than 10 is denoted as B)”.

`CCCN1C(=O)[C@@H]2CCN2C(=O)[C@H](C)N(C)C(=O)[C@H]([C@@H](C)CC)NC(=O)[C@H](CC(C)C)N(C)C(=O)C[C@@H](C(=O)N2CCOCC2)N(C)C(=O)[C@H](C2CCCC2)N(C)C(=O)C2(CCCC2)NC(=O)[C@@H]2C[C@@H](O)CN2C(=O)[C@H](CCc2ccc(C(F)(F)F)c(Cl)c2)NC(=O)CN(C)C(=O)[C@@H]1Cc1ccc(C(F)(F)F)cc1` [PP0239]: in experiment [1] (setting [4]), the pKd was 10.30. Also, the “NRAS/KRAS (ratio of KD value for NRAS to KD value for KRAS)” value in experiment [2] is “C (A compound having a KD ratio of 0.1 or more and less than 3 is denoted as C)”. Further, the “HRAS/KRAS (ratio of KD value for HRAS to KD value for KRAS)” value in experiment [3] is “B (a compound having 3 or more and less than 10 is denoted as B)”.

Take `CCCN1C(=O)CN(C)C(=O)[C@@H]2CCN2C(=O)[C@H](C2CCC2)NC(=O)[C@H](CC(C)C)N(C)C(=O)C[C@@H](C(=O)N2CCOCC2)N(C)C(=O)[C@H](C2CCCC2)N(C)C(=O)C2(CCCC2)NC(=O)[C@@H]2CCCN2C(=O)[C@H](CCc2ccc(C(F)(F)F)c(Cl)c2)NC(=O)CN(C)C(=O)[C@@H]1Cc1ccc(C(F)(F)F)cc1` [PP0305] ([NMeL][Gly(cBu)][Aze][Sar][NPrPhe(4-CF3)][Sar][hPhe(3-Cl-4-CF3)]P[Ac5c][NMeGly(cPent)][NMeD]-Morpholide; lactam N-11): in experiment [1] (setting [4]), the pKd is 9.02. Moreover, the “NRAS/KRAS (ratio of KD value for NRAS to KD value for KRAS)” value in experiment [2] is “B (a compound having 3 or more and less than 10 is denoted as B)”. For the same compound, the “HRAS/KRAS (ratio of KD value for HRAS to KD value for KRAS)” value in experiment [3] is “C (A compound having a KD ratio of 0.1 or more and less than 3 is denoted as C)”.

With `CCCN1C(=O)[C@@H]2CCN2C(=O)[C@H](C)N(C)C(=O)[C@H]([C@@H](C)CC)NC(=O)[C@H](CC(C)C)N(C)C(=O)C[C@@H](C(=O)N2CCOCC2)N(C)C(=O)[C@H](C2CCCC2)N(C)C(=O)C2(CCCC2)NC(=O)[C@@H]2CCCN2C(=O)[C@H](CCc2ccc(C(F)(F)F)c(Cl)c2)NC(=O)CN(CC)C(=O)[C@@H]1Cc1ccc(C)cc1` [PP0058] ([NMeL]I[NMeA][Aze][NPrPhe(4-Me)][NEtG][hPhe(3-Cl-4-CF3)]P[Ac5c][NMeGly(cPent)][NMeD]-Morpholide; lactam N-11), the pKd in experiment [1] (setting [4]) is 8.70. Further, the “NRAS/KRAS (ratio of KD value for NRAS to KD value for KRAS)” value in experiment [2] was “C (A compound having a KD ratio of 0.1 or more and less than 3 is denoted as C)”. In addition, the “HRAS/KRAS (ratio of KD value for HRAS to KD value for KRAS)” value in experiment [3] is “C (A compound having a KD ratio of 0.1 or more and less than 3 is denoted as C)”.

In the case of `CCO[C@@H]1C[C@H]2C(=O)NC3(CCC3)C(=O)N(C)[C@@H](C3CCCC3)C(=O)N(C)[C@H](C(=O)N3CCOCC3)CC(=O)N(C)[C@@H](CC(C)(C)C)C(=O)N[C@@H]([C@@H](C)CC)C(=O)N(C)CC(=O)N(C)[C@H]3CCCCN(C3=O)[C@@H](Cc3ccc(C(F)(F)F)cc3)C(=O)N(C)CC(=O)N[C@@H](CCc3cc(F)c(C(F)(F)F)c(F)c3)C(=O)N2C1` [PP0714], the pKd in experiment [1] (setting [4]) is 10.33. In experiment [2], the “NRAS/KRAS (ratio of KD value with respect to NRAS to KD value with respect to KRAS)” value was “C (A compound having a KD ratio of 0.1 or more and less than 3 is denoted as C)”. Also, the “HRAS/KRAS (ratio of KD value with respect to HRAS to KD value with respect to KRAS)” value in experiment [3] is “B (a compound having 3 or more and less than 10 is denoted as B)”.
